# Assay results: US6572751B1, “Method and apparatus for continuous flow isoelectric focusing for purifying biological substances” (priority 1997, dated 2003)
# How the values were obtained:
# [1] = system: E. coli and two Streptococcus Spp.; settings: disk tests
# [2] = Lysozyme activity of fractions; type: biochemical
# Procedure: For this Exarnple, egg white was collected from 2,000 eggs (about 50 L) and diluted in ice-cold distilled water, up to 150 L. All manipulations were done at 4° C. The solution was filtered and introduced into a 4 L apparatus according to the present invention, and having three working outflow ports (plus two electrode outflows). The contifocuser was initially filled with distilled water. The flow rate was adjusted at 75 ml/min, a DC 1,000 Volts was established, and the initial power of the system was 1.5 W. After adding the crude egg white suspension, the power raised to 10.5 W. The contifocusing lasted 34 hrs. […] This suspension was gradually introduced into a 1 L contifocuser with three working and two electrode outflow ports. The flow rate with distilled water was adjusted at 10 ml/min, 1,000 V/DC. […] The contifocusing lasted 3 days. The outflow nearest to the cathode, at pH 10.5, was collected. […] This fraction of 12 L was thereafter introduced in four fractions onto 200×1500 mm chromatographic columns packed by a molecular sieving gel, Spheron P-200, and 25 ml fractions were collected.
Molecule,inhibition [1] [%],protein-splitting activity ([2]; first peak after Spheron P-200 gel chromatography),lysozyme concentration (activity) ([2]; outflow at pH 10.5 after first contifocusing run) [U/ml]
"CN(C)[C@@H]1C(=O)C(C(N)=O)=C(O)[C@@]2(O)C(=O)C3=C(O)c4c(O)cccc4[C@@](C)(O)[C@H]3C[C@@H]12 [original material, Tetracyclin]",85,–,–
lysozyme: enzyme isolated from egg white by contifocusing,–,"20,000 U/g",200
